Columns and labels:
[1] = test system: S9 fraction of hamster liver; format: in vitro ADME
Excerpt: (§1) Hamster livers were processed by the same method.
(§2) This reduced the experimental variability and simplified the procedure. […] The method was as follows.
(§3) AMT formation by a human liver S9 fraction was compared with that by a hamster liver S9 fraction, as the hamster has the highest documented level of liver aldehyde oxidase activity (Kitamura, 1984; by Sugihara, 1996).

[2] = in words; cited from earlier work
[3] = test system: cytosolic fraction of human liver (aldehyde oxidase); format: in vitro ADME
Excerpt: as §1, §2

[4] = test system: microsomal fraction of human liver; format: in vitro ADME
Excerpt: as §1, §2

[5] = target: T1, S9 fraction of human liver (Homo sapiens, UniProt Q06278); experiment: AMT formation from AZT by human liver S9 fraction / human liver samples; format: in vitro ADME; conditions: human liver samples; conversion of AZT to AMT
T1 construct: Human liver samples stored at -70° C. were partially thawed, homogenized; from tissue; host or cells: human liver, S9 fraction (9000 g supernatant)
T1 sequence (Q06278 1-1338): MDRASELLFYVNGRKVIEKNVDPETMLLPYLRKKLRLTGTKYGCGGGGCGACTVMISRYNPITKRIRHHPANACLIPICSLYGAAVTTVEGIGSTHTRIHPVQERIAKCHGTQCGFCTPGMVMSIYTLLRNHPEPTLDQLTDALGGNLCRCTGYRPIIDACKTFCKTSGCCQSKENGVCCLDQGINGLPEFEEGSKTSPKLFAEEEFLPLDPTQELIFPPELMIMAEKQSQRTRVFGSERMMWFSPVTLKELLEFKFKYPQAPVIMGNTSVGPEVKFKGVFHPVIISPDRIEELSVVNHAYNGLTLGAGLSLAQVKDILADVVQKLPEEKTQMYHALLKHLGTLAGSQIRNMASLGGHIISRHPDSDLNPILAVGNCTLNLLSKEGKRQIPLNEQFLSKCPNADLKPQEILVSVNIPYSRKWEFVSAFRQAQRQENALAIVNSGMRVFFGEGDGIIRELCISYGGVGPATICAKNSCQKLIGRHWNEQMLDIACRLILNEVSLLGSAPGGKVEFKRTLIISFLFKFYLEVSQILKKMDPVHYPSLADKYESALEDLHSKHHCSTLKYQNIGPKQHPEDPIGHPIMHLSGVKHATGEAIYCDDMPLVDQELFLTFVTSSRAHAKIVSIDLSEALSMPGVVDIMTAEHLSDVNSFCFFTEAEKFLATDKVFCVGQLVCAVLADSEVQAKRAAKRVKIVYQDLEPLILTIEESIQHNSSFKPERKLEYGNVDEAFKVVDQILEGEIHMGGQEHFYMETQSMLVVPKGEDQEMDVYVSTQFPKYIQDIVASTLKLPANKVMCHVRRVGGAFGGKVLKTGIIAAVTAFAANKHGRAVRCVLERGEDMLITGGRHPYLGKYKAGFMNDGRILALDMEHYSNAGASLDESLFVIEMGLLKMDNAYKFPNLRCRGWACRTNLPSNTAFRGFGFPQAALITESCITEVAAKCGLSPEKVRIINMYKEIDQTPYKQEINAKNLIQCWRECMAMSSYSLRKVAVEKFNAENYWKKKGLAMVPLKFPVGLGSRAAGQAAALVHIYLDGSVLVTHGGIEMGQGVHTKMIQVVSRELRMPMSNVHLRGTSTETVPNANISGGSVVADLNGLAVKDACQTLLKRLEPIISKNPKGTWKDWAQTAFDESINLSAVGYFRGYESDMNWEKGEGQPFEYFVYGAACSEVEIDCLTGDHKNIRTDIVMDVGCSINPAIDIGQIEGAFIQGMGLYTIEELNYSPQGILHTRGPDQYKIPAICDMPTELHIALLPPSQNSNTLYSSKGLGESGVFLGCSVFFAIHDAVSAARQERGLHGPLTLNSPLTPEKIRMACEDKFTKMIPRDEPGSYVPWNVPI
Excerpt: as §1, §2, §3

[6] = test system: S9 fraction of human liver; experiment: as above; format: in vitro ADME
Excerpt: as §1, §2, §3

bone marrow cells = conditions: in words; cited from earlier work
bone marrow = conditions: cited from earlier work
[7] = in words; Veal et al., 1995; cited from earlier work
retroviral replication = conditions: cited from earlier work
[8] = test system: microsomal cytochrome P450 isozymes and microsomal NADPH-cytochrome P450 reductase; conditions: in words; Eagling (1994); cited from earlier work

Row | SMILES | AMT formation by hamster versus human liver S9 [1] | Ratio (2-OHP/NADPH) of AMT formation, HM [1] | half-life in the circulation relative to AZT [2] | 2-OHP-dependent AMT formation [3] | NADPH-dependent AMT formation [3] | 2-OHP-dependent AMT formation [4] | NADPH-dependent AMT formation [4] | share of AMT formation due to cytosolic aldehyde oxidase (2-OHP-dependent) [5] | Ratio (2-OHP/NADPH) of AMT formation, H.L. (first column) [6] | Ratio (2-OHP/NADPH) of AMT formation, H.L. (second column) [6] | share of AMT formation due to microsomal enzyme activity [6] | AMT formation (% AMT formed/0.05 g liver), H.L. (first column) ([6]; human, s9, 10 µM, pH 7.5) | AMT formation (% AMT formed/0.05 g liver), H.L. (second column) ([6]; human, s9, 10 µM, pH 7.5) | toxicity to bone marrow cells relative to AZT (bone marrow cells) | patients treated with AZT suffering bone marrow toxicity (bone marrow; depending on dosage and disease stage) | side-effect of bone marrow toxicity (bone marrow; in words) | pathways of metabolism and elimination [7] | inhibition of retroviral replication (retroviral replication) | conversion of AZT to AMT by human liver microsomes [8]
1 | Cc1cn([C@H]2C[C@H](N)[C@@H](CO)O2)c(=O)[nH]c1=O [AMT, 3'-amino-3'-deoxythymidine] | greater activity than the human fraction in the presence of either co-factor | 4.4 | longer half-life in the circulation | a higher level of AMT formation, dependent on 2-OHP | no NADPH-dependent AMT formation | no 2-OHP-dependent AMT formation | NADPH-dependent AMT formation occurred in the microsomal fraction | about 90% | 11 | 9.5 | about 10% | 1.8 % AMT formed/0.05 g liver | 1.5 % AMT formed/0.05 g liver | more toxic to bone marrow cells than AZT | – | – | – | – | –
2 | Cc1cn([C@H]2C[C@H](N=[N+]=[N-])[C@@H](CO)O2)c(=O)[nH]c1=O [AZT, 3'-azido-3'-deoxythymidine] | – | – | – | – | – | – | – | ≥ 90% | – | – | less than 10% | – | – | – | up to 51% | bone marrow toxicity, resulting in granulocytopenia and anemia | The predominant pathway of metabolism is by glucuronide formation and renal excretion | potent inhibitor of retroviral replication | the conversion was mediated by both microsomal cytochrome P450 isozymes and microsomal NADPH-cytochrome P450 reductase

Reference: patent US6040434A, “Aldehyde oxidase inhibitors for treatment of aids” (priority 1997, dated 2000)
